Where a name gives a salt, the structure may show the parent alone.

The record followed here is patent US20030018025A1, “Certain 4-aminomethyl-2-substituted imidazole derivatives and 2-aminomethyl-4-substituted imidazole derivatives: new classes of dopamine receptor subtype specific ligands” (Neurogen Corporation, Corporation of the State of Delaware, priority 1995, published 2003).

`c1ccc(CC2CCN(Cc3ncc(-c4ccccc4)[nH]3)CC2)cc1` (as salt: fumarate) [Compound 77, 4-phenyl-2(5)-[(4-benzylpiperidin-1-yl)-methyl]imidazole]: the melting point was 155 to 157 °C.

`COc1ccc(Br)cc1-c1ncc(CN(C)C)[nH]1` (as salt: hydrochloride) [Compound 1, 2-(5-bromo-2-methoxyphenyl)-4(5)-[(N,N-dimethyl)aminomethyl]-imidazole dihydrochloride] registered a melting point of 242 to 243 °C.

For `COc1cc(Br)cc(-c2ncc(CN(C)C)[nH]2)c1OC` (as salt: hydrochloride) [Compound 16, 2-(5-Bromo-2,3-dimethoxyphenyl)-4(5)-[(N,N-dimethyl)aminomethyl]-imidazole dihydrochloride], the melting point was determined as 194 °C.

The compound `COc1ccccc1N1CCN(Cc2cnc(-c3cccc(OC)c3OC)[nH]2)CC1` (as salt: hydrochloride) [Compound 21, 2-(2,3-Dimethoxyphenyl)-4(5)-[(4-(2-methoxyphenyl)-piperazin-1-yl)-methyl]-imidazole dihydrochloride] came in with a melting point of 217 to 218 °C.

`c1ccc(-c2ncc(CN3CCC(c4ccccc4)CC3)[nH]2)cc1` (as salt: hydrochloride) [Compound 26, 2-Phenyl-4(5)-[(4-phenyl-piperidin-1-yl)-methyl]-imidazole dihydrochloride] returned a melting point of 238 to 240 °C.

The compound `COc1ccc(Cl)cc1-c1ncc(CN2CCN(c3ccccc3OC)CC2)[nH]1` (as salt: hydrochloride) [Compound 43, 2-(5-Chloro-2-methoxyphenyl)-4(5)-[(4-(2-methoxyphenyl)-piperazin-1-yl)-methyl]-imidazole dihydrochloride] displayed a melting point of 138 to 143 °C.

Turning to `COc1ccc(-c2nc(CN3CCC(c4ccccc4)CC3)c[nH]2)cc1` (as salt: hydrochloride) [Compound 47, 2-(4-Methoxyphenyl) -4(5)[(4-phenyl-piperidin-1-yl)-methyl]-imidazole dihydrochloride], the melting point lay in the range of 196 to 199 °C.

In turn, `COc1cccc(-c2ncc(CN3CCC(c4ccccc4)CC3)[nH]2)c1` (as salt: hydrochloride) [Compound 50, 2-(3-Methoxyphenyl)-4(5)[(4-phenyl-piperidin-1-yl)-methyl]-imidazole dihydrochloride] had a melting point of 114 to 117 °C.

In turn, `CCc1ccc(OC)c(-c2ncc(CN3CCN(c4ccccc4OC)CC3)[nH]2)c1` (as salt: hydrochloride) [Compound 55, 2-(5-Ethyl-2-methoxyphenyl-4(5)-[(4-(2-methoxyphenyl)-piperazin-1-yl)-methyl]-imidazoledihydrochloride] returned a melting point of 61 to 64 °C.

In the case of `Fc1ccc(N2CCN(Cc3cnc(-c4ccccc4)[nH]3)CC2)cc1` (as salt: hydrochloride) [Compound 56, 2-Phenyl-4(5)-[(4-(4-fluorophenyl)-piperazin-1-yl-)methyl]imidazole dihydrochloride], the melting point lay within 64 to 68 °C.

On to `Fc1ccnc(N2CCN(Cc3cnc(-c4ccccc4)[nH]3)CC2)n1` (as salt: hydrochloride) [Compound 58, 2-Phenyl-4(5)-[(4-(4-fluoro-2-pyrimidinyl)-piperazin-1yl)-methyl]imidazole dihydrochloride], for which the melting point was in the range of 188 to 190 °C.

For the compound `Cc1ccc(Cl)cc1N1CCN(Cc2cnc(-c3ccccc3)[nH]2)CC1` (as salt: hydrochloride) [Compound 60, 2-Phenyl-4(5)-[(4(5-chloro-2-methylphenyl)-piperazin-1yl-)-methyl]imidazole dihydrochloride], the melting point was in the range of 142 to 145 °C.

Regarding `CC(c1cnc(-c2ccccc2)[nH]1)N1CCC(Cc2ccccc2)CC1` (stereo not drawn) (as salt: hydrochloride) [Compound 91, 2-phenyl-4(5)-[1-((4-benzyl-piperidin-1-yl)-ethan-1-yl)]imidazole dihydrochloride salt], the melting point is 169 to 171 °C.

On to `Ic1nc(-c2ccccc2)[nH]c1CN1CCN(c2ncccn2)CC1` (as salt: hydroiodid) [Compound 90, 2-phenyl-5-iodo-4(5)-[(4-(2-pyrimidinyl)piperazin-1-yl)methyl]-imidazole hydroiodide salt], for which the melting point is 196 to 199 °C.

Regarding `Fc1ccccc1-c1ncc(CN2CCC(c3ccccc3)CC2)[nH]1` (as salt: maleate) [Compound 52, 2-(2-Fluorophenyl)-4(5)[(4-phenyl-piperidin-1-yl)-methyl]-imidazole dimaleate], the melting point was 142 to 144 °C.

`COc1ccccc1N1CCN(Cc2cnc(-c3ccccc3)[nH]2)CC1` [Compound 19, 2-phenyl-4-(5)-[(4-(2-methoxyphenyl)-piperazin-1-yl)-methyl]imidazole] displayed a melting point of 105 to 107 °C.

In the case of `COc1ccccc1N1CCN(Cc2cnc(-c3ccc(F)cc3)[nH]2)CC1` [Compound 20, 2-(4-Fluorophenyl)-4(5)-[(4-(2-methoxyphenyl)-piperazin-1-yl)-methyl]-imidazole], the melting point lay within 95 to 97 °C.

In turn, `Clc1ccc(N2CCN(Cc3cnc(-c4ccccc4)[nH]3)CC2)cc1Cl` [Compound 61, 2-Phenyl-4(5)-[(4(3,4-dichlorophenyl)-piperazin-1-yl-)methyl]imidazole] yielded a melting point of 179 to 181 °C.

For the compound `c1ccc(CC2CCN(Cc3cnc(-c4cccc5ccccc45)[nH]3)CC2)cc1` [Compound 92, 2-(1-naphthyl)-4(5)-[(4-benzyl-piperidin-1-yl)-methyl]imidazole], the melting point lay within 81 to 83 °C.

As for `O=C(c1ccccc1)c1ncc(CN2CCN(c3ncccn3)CC2)[nH]1` [Compound 116, 2-(benzoyl)-4(5)-[(4-(2-pyrimidinyl)-piperazin-1-yl)-methyl]-imidazole], the melting point lay in the range of 177 to 179 °C.

On to `O=C(/C=C/c1cnc(-c2ccccc2)[nH]1)N1CCN(c2ncccn2)CC1` [Compound 119, 2-phenyl-4(5)-[(4-(2-pyrimidinyl)-piperazin-1-yl)-propen-1-oyl]-imidazole], for which the melting point fell in the range of 235 to 236 °C.

For `O=C(CCc1cnc(-c2ccccc2)[nH]1)N1CCN(c2ncccn2)CC1` [Compound 122, 2-phenyl-4(5)-[(4-(2-pyrimidinyl)-piperazin-1-yl)-propan-1-oyl]-imidazole], the melting point is 143 to 148 °C.

As for `c1ccc(-c2ncc(CCCN3CCN(c4ncccn4)CC3)[nH]2)cc1` [Compound 125, 2-phenyl-4(5)-[(4-(2-pyrimidinyl)-piperazin-1-yl)-propan-1-yl]-imidazole], the melting point is 133 to 135 °C.

`c1cnc(N2CCN(Cc3cnc(C4CCCCC4)[nH]3)CC2)nc1` [Compound 128, 2-cyclohexyl-4(5)-[(4-(2-pyrimidinyl)-piperizin-1-yl)-methyl]-imidazole] came in with a melting point of 210 to 213 °C.

In turn, `c1ccc(-c2nc(-c3ccccc3)c(CN3CCN(c4ncccn4)CC3)[nH]2)cc1` [Compound 132, 2,5-diphenyl-4(5)-[(4-(2-pyrimidinyl)piperazin-1-yl)methyl]-imidazole] had a melting point of 221 to 225 °C.

`Cc1ccc(-c2ncc(CN3CCN(c4ncccn4)CC3)[nH]2)cc1` [Compound 133] registered a melting point of 178 to 180 °C.

Regarding `c1ccc(CC2CCN(CC3CCCc4[nH]c(-c5ccccc5)nc43)CC2)cc1` (stereo not drawn) [Compound 138, 2-phenyl-7-[(4-benzyl-piperidin-1-yl)-methyl]-4,5,6,7-tetrahydrobenzimidazole], the melting point fell in the range of 189 to 191 °C.

Compound `C[C@@H]1CN(c2ncccn2)C[C@H](C)N1Cc1cnc(-c2ccccc2)[nH]1` [Compound 140, 2-phenyl-4(5)-[(4-(2-pyrimidinyl)-cis-2,6-dimethylpiperazin-1-yl)-methyl]-imidazole] returned a melting point of 130 to 135 °C.

For the compound `c1ccc(-c2ncc(CCN3CCN(c4ncccn4)CC3)[nH]2)cc1` [Compound 143, 2-phenyl-4(5)-[(4-(2-pyrimidinyl)-piperazin-1-yl)-ethan-1-yl]-imidazole], the melting point lay within 142 to 144 °C.

As for `O=C(c1cnc(-c2ccccc2)[nH]1)N1CCN(c2ncccn2)CC1` [Compound 144, 2-phenyl-4(5)-N-[(4-(2-pyrimidinyl)piperazin-1-yl)-carboxamido]-imidazole], the melting point is 231 to 232 °C.
